Patent US8481495B2 (TetraLogic Pharmaceuticals Corporation, priority 2009, dated 2013)

Experiments:
cIAP-1 BIR-3 = target: T1, cIAP-1 BIR-3 (Homo sapiens, UniProt Q13490); experiment: Fluorescence polarization binding to cIAP-1 BIR-3 with labeled peptide AbuRPF-K(5-Fam)-NH2; settings: cIAP-1 BIR-3, 40 nM BIR3, 5 nM labeled peptide, 15 min RT, pH 7.5; read-out: cIAP1, nM (binding affinity KD, as range)
T1 construct: 40 nM of the respective IAP BIR3
Protocol: (§1) The binding affinities of the compounds are reported as a KD value (μM). Briefly, various concentrations of test peptides were mixed with 5 nM of the fluorescently labeled peptide (i.e., a mutated N-terminal Smac peptide-AbuRPF-K(5-Fam)-NH2) and 40 nM of the respective IAP BIR3 for 15 min at RT in […] of 0.1M Potassium Phosphate buffer, pH 7.5 containing […] bovine g-globulin. Following incubation, the polarization values (mP) were measured on a Victor2V™ (available from PerkinElmer® Life Sciences) using a 485 nm excitation filter and a 520 nm emission filter. The reported binding affinities (KD values) are supplied as ranges (A=<0.1 μM, B=0.1 μM to 1 μM, C=>1 μM to 10 μM, D=>10 μM).

XIAP BIR-3 = target: T2, XIAP BIR-3 (Homo sapiens, UniProt P98170); experiment: Fluorescence polarization binding to XIAP BIR-3 with labeled peptide AbuRPF-K(5-Fam)-NH2; settings: XIAP BIR-3, 40 nM BIR3, 5 nM labeled peptide, 15 min RT, pH 7.5; read-out: XIAP, nM (binding affinity KD, as range)
T2 construct: 40 nM of the respective IAP BIR3
Protocol: as §1

SK-OV-3 cells = experiment: MTT cell growth inhibition assay in ovarian cancer cell line SK-OV-3; assay type: cell-based; settings: Homo sapiens, 72 hrs incubation, read-out: SKOV3, nM (CC50, concentration giving 50% cell survival, as range)
Protocol: Compounds of the invention also were tested for their ability to inhibit the growth of an ovarian cancer cell line, SK-OV-3. A known assay previously used for measuring cell growth (as described in Hansen, M. B., Nielsen, S. E., and Berg, K. (1989) J. Immunol. Methods 119, 203-210 and incorporated herein by reference in its entirety) was used. Briefly, SK-OV-3 cells are seeded in 96-well plates in McCoy's medium containing 10% fetal bovine serum albumin (5,000 per well) and incubated overnight at 37° C. The next day, test compounds are added at various concentrations (0.003-10 μM) and the plates are incubated at 37° C. for an additional 72 hrs. This incubation time was considered to be optimal for measuring inhibitory effects of the different compounds tested. 50 microliters of 5 mg/mL MTT reagent is added to each well and the plates are incubated at 37° C. for another three (3) hours. At the end of the three (3) hour incubation period, 50 microliters of DMSO is added to each well to dissolve cells and the optical density (OD) of the wells is measured with a microplate reader (Victor^2 1420™, Wallac, Finland) at 535 nm. Cell survival (CS) was calculated using the following equation: CS=(OD treated well/mean OD control wells)×100%.
The CC50 (reported in the following tables), is defined as the drug concentration that results in 50% cell survival (CS), and is derived by calculating the point where the dose-response curve crosses the 50% CS point using GraphPad Prism® graphing software. The reported CC50 values are supplied as ranges (A=<0.1 μM, B=0.1 μM to 1 μM, C=>1 μM to 10 μM, D=>10 μM).

T2 sequence (P98170 241-356 limits assumed): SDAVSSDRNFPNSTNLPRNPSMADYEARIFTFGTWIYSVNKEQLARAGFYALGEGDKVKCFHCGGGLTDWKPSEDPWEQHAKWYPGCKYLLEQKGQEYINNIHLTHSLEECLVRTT
T1 sequence (Q13490 253-363 limits assumed): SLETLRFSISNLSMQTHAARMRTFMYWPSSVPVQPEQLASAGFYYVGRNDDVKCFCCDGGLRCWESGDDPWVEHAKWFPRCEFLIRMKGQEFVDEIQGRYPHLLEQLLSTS

Kd (cIAP-1 BIR-3) [nM]	Kd (XIAP BIR-3) [nM]	SMILES	CC50 (SK-OV-3 cells) [nM]
< 100	< 100	CN[C@@H](C)C(=O)N[C@H](C(=O)N1CC[C@@H]2[C@H]1[C@@H](C(=O)Nc1cc(C)nn1-c1ccccc1)CN2S(C)(=O)=O)C(C)(C)C [Example 26, 4-[3,3-Dimethyl-2-(2-methylamino-propionylamino)-butyryl]-1-methanesulfonyl-octahydro-pyrrolo[3,2-b]pyrrole-3-carboxylic acid (5-methyl-2-phenyl-2H-pyrazol-3-yl)-amide]	100 to 1000
< 100	< 100	CN[C@@H](C)C(=O)N[C@H](C(=O)N1CC[C@@H]2[C@H]1[C@@H](C(=O)N[C@@H]1CCCc3ccccc31)CN2S(C)(=O)=O)C(C)(C)C [Example 27, 4-[3,3-Dimethyl-2-(2-methylamino-propionylamino)-butyryl]-1-methanesulfonyl-octahydro-pyrrolo[3,2-b]pyrrole-3-carboxylic acid (1,2,3,4-tetrahydro-naphthalen-1-yl)-amide]	< 100
< 100	< 100	CN[C@@H](C)C(=O)N[C@H](C(=O)N1CC[C@@H]2[C@H]1[C@@H](C(=O)N[C@@H](C)C1CCCCC1)CN2S(C)(=O)=O)C(C)(C)C [Example 28, 4-[3,3-Dimethyl-2-(2-methylamino-propionylamino)-butyryl]-1-methanesulfonyl-octahydro-pyrrolo[3,2-b]pyrrole-3-carboxylic acid (1S-cyclohexyl-ethyl)-amide]	< 100
< 100	1000 to 10000	CN[C@@H](C)C(=O)N[C@H](C(=O)N1CC[C@@H]2[C@H]1[C@@H](C(=O)N[C@H](C)C1CCCCC1)CN2S(C)(=O)=O)C(C)(C)C [Example 29, 4-[3,3-Dimethyl-2-(2-methylamino-propionylamino)-butyryl]-1-methanesulfonyl-octahydro-pyrrolo[3,2-b]pyrrole-3-carboxylic acid (1R-cyclohexyl-ethyl)-amide]	1000 to 10000
< 100	1000 to 10000	CN[C@@H](C)C(=O)N[C@H](C(=O)N1CC[C@@H]2[C@H]1[C@@H](C(=O)N[C@@H](Cc1ccccc1)C(=O)O)CN2S(C)(=O)=O)C1CCCCC1 [Example 30, 2-({4-[2-Cyclohexyl-2-(2-methylamino-propionylamino)-acetyl]-1-methanesulfonyl-octahydro-pyrrolo[3,2-b]pyrrole-3-carbonyl}-amino)-3-phenyl-propionic acid]	1000 to 10000
< 100	100 to 1000	CN[C@@H](C)C(=O)N[C@H](C(=O)N1CC[C@H]2NC[C@H](C(=O)Nc3ccccc3)[C@H]21)C1CCCCC1 [Example 31]	100 to 1000
< 100	100 to 1000	CN[C@@H](C)C(=O)N[C@H](C(=O)N1CC[C@H]2NC[C@@H](C(=O)Nc3ccccc3)[C@H]21)C1CCCCC1 [Example 32]	1000 to 10000
< 100	< 100	CNC(C)C(=O)NC(C(=O)N1CCC2C1C(C(=O)NC1CCCc3ccccc31)CN2C(=O)C1CC1)C1CCCCC1 (stereo not drawn) [Example 33, 4-[2-Cyclohexyl-2-(2-methylamino-propionylamino)-acetyl]-1-cyclopropanecarbonyl-octahydro-pyrrolo[3,2-b]pyrrole-3-carboxylic acid (1,2,3,4-tetrahydro-naphthalen-1-yl)-amide]	< 100
< 100	< 100	CN[C@@H](C)C(=O)N[C@H](C(=O)N1CC[C@@H]2[C@H]1[C@@H](C(=O)N[C@@H]1CCCc3ccccc31)CN2C(C)=O)C(C)(C)C [Example 34, 1-Acetyl-4-[3,3-dimethyl-2-(2-methylamino-propionylamino)-butyryl]-octahydro-pyrrolo[3,2-b]pyrrole-3-carboxylic acid (1,2,3,4-tetrahydro-naphthalen-1-yl)-amide]	< 100
< 100	< 100	CN[C@@H](C)C(=O)N[C@H](C(=O)N1CC[C@@H]2[C@H]1[C@@H](C(=O)NCc1ccc(F)cc1)CN2C(C)=O)C(C)(C)C [Example 35, 1-Acetyl-4-[3,3-dimethyl-2-(2-methylamino-propionylamino)-butyryl]-octahydro-pyrrolo[3,2-b]pyrrole-3-carboxylic acid 4-fluoro-benzylamide]	< 100
< 100	< 100	CN[C@@H](C)C(=O)N[C@H](C(=O)N1CC[C@@H]2[C@H]1[C@@H](C(=O)N[C@@H]1CCCc3ccccc31)CN2C(C)=O)C1CCCCC1 [Example 36, 1-Acetyl-4-[2-cyclohexyl-2-(2-methylamino-propionylamino)-acetyl]-octahydro-pyrrolo[3,2-b]pyrrole-3-carboxylic acid (1,2,3,4-tetrahydro-naphthalen-1-yl)-amide]	< 100
< 100	< 100	CN[C@@H](C)C(=O)N[C@H](C(=O)N1CC[C@@H]2[C@H]1[C@@H](C(=O)Nc1cccc3ccccc13)CN2C(C)=O)C(C)(C)C [Example 37, 1-Acetyl-4-[3,3-dimethyl-2-(2-methylamino-propionylamino)-butyryl]-octahydro-pyrrolo[3,2-b]pyrrole-3-carboxylic acid naphthalen-1-ylamide]	< 100
< 100	< 100	CN[C@@H](C)C(=O)N[C@H](C(=O)N1CC[C@@H]2[C@H]1[C@@H](C(=O)NCc1ccccc1)CN2C(C)=O)C(C)(C)C [Example 38, 1-Acetyl-4-[3,3-dimethyl-2-(2-methylamino-propionylamino)-butyryl]-octahydro-pyrrolo[3,2-b]pyrrole-3-carboxylic acid benzylamide]	< 100
< 100	< 100	CN[C@@H](C)C(=O)N[C@H](C(=O)N1CC[C@@H]2[C@H]1[C@@H](C(=O)N[C@@H]1CCCc3ccccc31)CN2C(=O)OC)C1CCCCC1 [Example 39, 4-[2-Cyclohexyl-2-(2-methylamino-propionylamino)-acetyl]-3-(1,2,3,4-tetrahydro-naphthalen-1-ylcarbamoyl)-hexahydro-pyrrolo[3,2-b]pyrrole-1-carboxylic acid methyl ester]	< 100
< 100	< 100	CNC(=O)N1C[C@H](C(=O)N[C@@H]2CCCc3ccccc32)[C@@H]2[C@H]1CCN2C(=O)[C@@H](NC(=O)[C@H](C)NC)C(C)(C)C [Example 40, 4-[3,3-Dimethyl-2-(2-methylamino-propionylamino)-butyryl]-hexahydro-pyrrolo[3,2-b]pyrrole-1,3-dicarboxylic acid 1-methylamide 3-[(1,2,3,4-tetrahydro-naphthalen-1-yl)-amide]]	< 100
< 100	< 100	CNC(=O)N1C[C@H](C(=O)NCc2ccc(F)cc2)[C@@H]2[C@H]1CCN2C(=O)[C@@H](NC(=O)[C@H](C)NC)C(C)(C)C [Example 41, 4-[3,3-Dimethyl-2-(2-methylamino-propionylamino)-butyryl]-hexahydro-pyrrolo[3,2-b]pyrrole-1,3-dicarboxylic acid 3-(4-fluoro-benzylamide) 1-methylamide]	< 100
< 100	< 100	CNC(=O)N1C[C@H](C(=O)Nc2cccc3ccccc23)[C@@H]2[C@H]1CCN2C(=O)[C@@H](NC(=O)[C@H](C)NC)C(C)(C)C [Example 42, 4-[3,3-Dimethyl-2-(2-methylamino-propionylamino)-butyryl]-hexahydro-pyrrolo[3,2-b]pyrrole-1,3-dicarboxylic acid 1-methylamide 3-naphthalen-1-ylamide]	< 100
< 100	100 to 1000	CN[C@@H](C)C(=O)N[C@H](C(=O)N1CC[C@@H]2[C@H]1[C@@H](C(=O)N[C@@H]1CCCc3ccccc31)CN2c1ncccn1)C1CCCCC1 [Example 43, 4-[2-Cyclohexyl-2-(2-methylamino-propionylamino)-acetyl]-1-pyrimidin-2-yl-octahydro-pyrrolo[3,2-b]pyrrole-3-carboxylic acid (1,2,3,4-tetrahydro-naphthalen-1-yl)-amide]	< 100
